Laboratory results as given in PMC2857410 (The Journal of neuroscience : the official journal of the …, 2009).

Key:
[1] = molecular target: homomeric α7-nAChR (Xenopus oocytes) (Rattus norvegicus, UniProt Q05941); test: two-electrode voltage clamp, agonist-induced current; format: cell-based; details: 10 mM, 2 s exposure, -70 mV, pH 7.5
[2] = molecular target: heteromeric α7β2-nAChR (Xenopus oocytes) (Rattus norvegicus, UniProt P12390+Q05941); test: as above; format: cell-based; details: 10 mM, 2 s exposure, -70 mV, pH 7.5
heteromeric α7β2-nAChR (Xenopus oocytes), sequence (Q05941 23-502): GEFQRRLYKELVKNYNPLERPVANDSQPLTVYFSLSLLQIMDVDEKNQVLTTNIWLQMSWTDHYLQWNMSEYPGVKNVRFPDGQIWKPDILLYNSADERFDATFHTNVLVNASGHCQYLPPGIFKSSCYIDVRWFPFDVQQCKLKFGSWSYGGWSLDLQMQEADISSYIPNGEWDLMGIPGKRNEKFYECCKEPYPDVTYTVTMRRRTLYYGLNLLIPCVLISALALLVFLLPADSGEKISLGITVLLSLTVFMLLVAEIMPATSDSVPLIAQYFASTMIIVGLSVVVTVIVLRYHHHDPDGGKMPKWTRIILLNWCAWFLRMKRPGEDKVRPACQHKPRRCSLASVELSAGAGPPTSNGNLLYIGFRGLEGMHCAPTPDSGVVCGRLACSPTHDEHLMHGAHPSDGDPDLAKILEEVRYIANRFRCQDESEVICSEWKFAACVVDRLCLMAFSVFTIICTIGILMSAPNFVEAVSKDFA
heteromeric α7β2-nAChR (Xenopus oocytes), sequence (P12390 25-500): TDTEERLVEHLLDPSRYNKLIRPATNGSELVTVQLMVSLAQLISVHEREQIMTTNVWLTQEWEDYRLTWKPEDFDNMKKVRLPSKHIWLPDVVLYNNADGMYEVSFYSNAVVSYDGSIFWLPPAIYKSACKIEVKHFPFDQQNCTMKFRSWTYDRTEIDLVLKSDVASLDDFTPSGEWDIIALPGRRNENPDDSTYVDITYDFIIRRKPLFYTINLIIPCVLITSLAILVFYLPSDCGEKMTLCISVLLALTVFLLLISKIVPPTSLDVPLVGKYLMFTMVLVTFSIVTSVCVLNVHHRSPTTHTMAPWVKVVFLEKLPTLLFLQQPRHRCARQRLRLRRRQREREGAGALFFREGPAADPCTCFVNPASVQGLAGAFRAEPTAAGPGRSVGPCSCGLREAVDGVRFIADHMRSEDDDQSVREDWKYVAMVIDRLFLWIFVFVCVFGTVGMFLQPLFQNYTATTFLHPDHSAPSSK

homomeric α7-nAChR (Xenopus oocytes), sequence (Q05941 23-502): as the sequence (Q05941 23-502) above

`C[N+](C)(C)CCO` [choline] was tested, and the “two-electrode voltage clamp, agonist-induced current” value [1] was “oocytes injected with rat α7-nAChR subunit cRNA alone” and the “two-electrode voltage clamp, agonist-induced current” value [2] was “exhibited smaller peak current responses to choline and slower current decay rates”.
